From ChEMBL document CHEMBL1201862, “PubChem BioAssay data set” (2004)
Structures can show the parent of a compound that is named as a salt.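 Method: 48-hour compound exposure of cells in 96-well plates, five concentrations, linear interpolation of endpoints. GI50 is the concentration that inhibits growth by half.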 Calls of active or inactive are those of the source. No stated cut-off is given here; in the data, active = GI50 up to about 1.1 µM and inactive = higher.

Assays:
Test in all cases: inhibition of tumour cell growth, NCI panel, 48 h
UACC-257 = system: UACC-257
HOP-92 = system: HOP-92
NCI-H522 = system: NCI-H522
UO-31 = system: UO-31
LOX IMVI = system: LOX IMVI
OVCAR-3 = system: OVCAR-3
ACHN = system: ACHN
SW-620 = system: SW-620
786-0 = system: 786-0
SF-268 = system: SF-268
SK-MEL-5 = system: SK-MEL-5
A498 = system: A498
UACC-62 = system: UACC-62
SR = system: SR
RXF 393 = system: RXF 393
K562 = system: K562
NCI-H460 = system: NCI-H460
NCI-H23 = system: NCI-H23
Hs-578T = system: Hs-578T
BT-549 = system: BT-549

Measured: GI50

C/C=C/C=C/[C@H]1Cc2cc(O)cc(O)c2O1
inactive: UACC-257 28.4 µM | HOP-92 > 100 µM | NCI-H522 36.6 µM | UO-31 29.4 µM | LOX IMVI 47.9 µM | OVCAR-3 33 µM | ACHN 52.5 µM | SW-620 58.6 µM | 786-0 > 100 µM | SF-268 > 100 µM | SK-MEL-5 49.7 µM | A498 > 100 µM | UACC-62 22.9 µM | SR 78.5 µM | RXF 393 > 100 µM | K562 37.2 µM | NCI-H460 44.1 µM | NCI-H23 51.5 µM

O=C(/C=C/c1ccsc1)c1ccc(Cl)cc1
inactive: UACC-257 > 100 µM | UO-31 31.1 µM | LOX IMVI 25.5 µM | ACHN > 100 µM | SW-620 33.6 µM | 786-0 89.5 µM | SF-268 79.4 µM | SK-MEL-5 > 100 µM | A498 45 µM | UACC-62 41.6 µM | SR 18.7 µM | K562 20.6 µM | NCI-H460 > 100 µM | NCI-H23 35.3 µM | Hs-578T 57.8 µM

COc1ccc(/N=N/c2c(N)nn(C)c2N)cc1
inactive: UACC-257 > 100 µM | HOP-92 > 100 µM | NCI-H522 > 100 µM | UO-31 > 100 µM | LOX IMVI > 100 µM | OVCAR-3 > 100 µM | ACHN > 100 µM | SW-620 > 100 µM | 786-0 > 100 µM | SF-268 > 100 µM | SK-MEL-5 > 100 µM | A498 > 100 µM | UACC-62 > 100 µM | SR 18.5 µM | RXF 393 > 100 µM | K562 > 100 µM | NCI-H460 > 100 µM | NCI-H23 > 100 µM

Nc1nc(N)c2ncn(CC3CCC(CO)C3)c2n1 (configuration not stated)
inactive: UACC-257 > 100 µM | HOP-92 > 100 µM | UO-31 > 100 µM | LOX IMVI > 100 µM | OVCAR-3 > 100 µM | ACHN > 100 µM | SW-620 > 100 µM | 786-0 > 100 µM | SF-268 > 100 µM | SK-MEL-5 > 100 µM | A498 > 100 µM | UACC-62 > 100 µM | RXF 393 > 100 µM | K562 > 100 µM | Hs-578T > 100 µM

N#CC(C#N)/N=C/c1ccncc1
inactive: UACC-257 > 100 µM | HOP-92 > 100 µM | LOX IMVI > 100 µM | OVCAR-3 > 100 µM | ACHN > 100 µM | SW-620 > 100 µM | 786-0 > 100 µM | SF-268 > 100 µM | SK-MEL-5 > 100 µM | BT-549 > 100 µM | A498 95.9 µM | UACC-62 > 100 µM | RXF 393 > 100 µM | K562 > 100 µM | NCI-H23 > 100 µM

CCOC(=O)C(NC(=O)CC(C)C)(Nc1ccc(C(F)(F)F)cc1)C(F)(F)F (configuration not stated)
inactive: UACC-257 44.3 µM | HOP-92 30.3 µM | NCI-H522 16.7 µM | UO-31 61.7 µM | LOX IMVI 84.5 µM | OVCAR-3 13.4 µM | ACHN 14.5 µM | SW-620 57.8 µM | 786-0 82.4 µM | SF-268 > 100 µM | SK-MEL-5 82.8 µM | SR 23.4 µM | RXF 393 35.4 µM | K562 23.9 µM | NCI-H460 26.4 µM | NCI-H23 76.4 µM | Hs-578T 25.5 µM

CC1(C)C(/C=N\O)=[N+]([O-])C(C)(C)N1O
inactive: UACC-257 > 100 µM | HOP-92 > 100 µM | UO-31 > 100 µM | LOX IMVI > 100 µM | OVCAR-3 49.7 µM | ACHN > 100 µM | SW-620 > 100 µM | 786-0 > 100 µM | SF-268 > 100 µM | SK-MEL-5 > 100 µM | UACC-62 > 100 µM | SR > 100 µM | RXF 393 > 100 µM | K562 > 100 µM | NCI-H460 > 100 µM | NCI-H23 > 100 µM | Hs-578T > 100 µM

Cc1ccc(C(=O)/C=C/N2CCN(c3cccc(C(F)(F)F)c3)CC2)cc1
inactive: UACC-257 16.4 µM | HOP-92 27.1 µM | NCI-H522 17.5 µM | UO-31 17.5 µM | OVCAR-3 14.4 µM | ACHN 23.9 µM | SW-620 20.6 µM | 786-0 18.2 µM | SF-268 17.3 µM | SK-MEL-5 14.9 µM | A498 15.8 µM | UACC-62 19.3 µM | SR 19.8 µM | RXF 393 15.7 µM | K562 18.7 µM | NCI-H460 21.7 µM | NCI-H23 16.8 µM | Hs-578T 24 µM

CC(C)CS(=O)(=O)/C(=C(\c1ccc(Br)cc1)S(=O)(=O)CC(C)C)c1ccc(Br)cc1
inactive: UACC-257 > 100 µM | HOP-92 > 100 µM | NCI-H522 > 100 µM | UO-31 > 100 µM | LOX IMVI > 100 µM | OVCAR-3 > 100 µM | ACHN > 100 µM | SW-620 > 100 µM | 786-0 > 100 µM | SF-268 > 100 µM | SK-MEL-5 1.41 µM | A498 16.3 µM | UACC-62 > 100 µM | SR > 100 µM | RXF 393 90.2 µM | K562 > 100 µM | NCI-H460 > 100 µM | NCI-H23 > 100 µM

CCOC(=O)NC(=O)c1cn(CCCOC(=O)CCCCCCCCCCC(=O)OCCCn2cc(C(=O)NC(=O)OCC)c(=O)n(C)c2=O)c(=O)n(C)c1=O
inactive: UACC-257 > 100 µM | HOP-92 67.8 µM | NCI-H522 > 100 µM | UO-31 > 100 µM | LOX IMVI > 100 µM | OVCAR-3 > 100 µM | ACHN > 100 µM | SW-620 > 100 µM | 786-0 > 100 µM | SF-268 > 100 µM | SK-MEL-5 > 100 µM | A498 > 100 µM | UACC-62 > 100 µM | SR > 100 µM | RXF 393 > 100 µM | K562 > 100 µM | NCI-H460 > 100 µM | NCI-H23 > 100 µM

CCN(CC)CC(O)C1CCC(c2ccccc2)CC1 (configuration not stated)
inactive: UACC-257 21 µM | HOP-92 18.6 µM | NCI-H522 16.2 µM | UO-31 14.8 µM | LOX IMVI 17.4 µM | OVCAR-3 44 µM | ACHN 18 µM | SW-620 24.8 µM | 786-0 15.6 µM | SF-268 31.6 µM | SK-MEL-5 13.7 µM | A498 14.4 µM | UACC-62 15.6 µM | RXF 393 17.4 µM | K562 26.8 µM | NCI-H460 25.6 µM | NCI-H23 30.4 µM | Hs-578T 30.5 µM

NCCS [CYSTEAMINE HYDROCHLORIDE]
inactive: UACC-257 > 100 µM | NCI-H522 > 100 µM | UO-31 > 100 µM | LOX IMVI > 100 µM | OVCAR-3 > 100 µM | ACHN > 100 µM | SW-620 > 100 µM | 786-0 > 100 µM | SF-268 > 100 µM | SK-MEL-5 > 100 µM | SR > 100 µM | K562 > 100 µM | NCI-H460 > 100 µM | NCI-H23 > 100 µM | Hs-578T > 100 µM
